Measurements: patent publication US20120190586A1, “Synthetic Receptors for Identification of Protein Posttranslation Modifications” (priority 2009, published 2012)
Several values for one entry are separate records, joined by “and”; a condition that tells them apart may be missing. Identical values can stand only once. Like-named read-outs stand apart in the source and are kept apart here.

Columns and labels:
[1] = biological target: T1, H3 K9Me2 (FAM-QTAR-KMe2-STG-NH2) (Homo sapiens, UniProt P68431); assay: Fluorescence anisotropy binding of A2B receptors to FAM-labeled histone 3 peptide; conditions: 27° C., 10 mM phosphate buffer pH 8.5; errors in parentheses
T1 construct: peptide consisting of residues 5-11 of histone 3 (H3 K9Men); made in house; host or cells: solid-phase chemical peptide synthesis
Method: (§1) Fluorescence anisotropy was used to measure the dissociation constant of rac- and meso-A2B to a peptide consisting of residues 5-11 of histone 3 (H3 K9Men), with each of the methylation states at Lys 9 as well as an N-terminal carboxyfluorescein (FAM) for fluorescence detection. Binding affinities for H3 K9Me3 were also confirmed by ITC (see below).
(§2) H3 K9Men: FAM-QTAR-KMen-STG-NH2, n=0-3
(§3) Fluorescence Anisotropy. Binding assays were performed with purified rac- or meso-A2B and fluorescein labeled histone 3 peptides. Assays were prepared in 384-well plates (Corning) with a total volume of 50 μL per well, containing 20 μM labeled peptide and increasing concentrations of A2B in buffer (10 mM phosphate pH 8.5). Plates were spun down and allowed to incubate for at least 30 minutes before analysis. Fluorescence anisotropy was measured on a PHERAstar (BMG Labtech) using FP485, 520A, and 520B filters at 27° C. The anisotropy data was plotted as a function A2B concentration and each plot was fitted in KaleidaGraph to the following equation (Wang, Y.; Killian, J.; Hamasaki, K.; Rando, R. R. Biochemistry 1996, 35, 12338-12346):
(§4) where r is fluorescence anisotropy, ro is the initial anisotropy value, r∞ is the maximum anisotropy value, a is the peptide concentration, x is the concentration of A2B, and kd is the dissociation constant. All measurements were taken in duplicate or triplicate.

[2] = biological target: T2, H3 K9Me3 (FAM-QTAR-KMe3-STG-NH2) (Homo sapiens, UniProt P68431); assay: as above; conditions: for Kd: 27° C., 10 mM phosphate buffer pH 8.5, errors in parentheses; for Affinity for H3 K9Me3 peptide (in words): fluorescence anisotropy
T2 construct: peptide consisting of residues 5-11 of histone 3 (H3 K9Men); made in house; host or cells: solid-phase chemical peptide synthesis
Method: as §1, §2, §3, §4

[3] = biological target: T3, WGGG-GKMe3 (Histone 3 peptide, Gly8) (Homo sapiens, UniProt P68431, R9G); assay: Isothermal titration calorimetry, peptide titrated into A2B; format: binding
T3 construct: made in house; host or cells: solid-phase chemical peptide synthesis
Method: FIG. 12. Histone 3 peptide (WGGG-GKMe3) used as the titrant in ITC experiments to confirm A2B binding to KMe3.
Isothermal Titration calorimetry. Isothermal titration calorimetry measurements were conducted using an ITC200 from MicroCal, LLC to verify the binding data obtained by fluorescence anisotropy. A single 0.2 μL aliquot followed by 38 aliquots of 1 μL were titrated into the calorimetric cell every 2.5 minutes. The titrant used to determine the binding to KMe3 was a 2.0 mM solution of the H3 tail peptide in FIG. 12 (in 10 mM phosphate buffer, pH 8.5), containing a Trp for concentration determination and separated from the natural sequence by 3 glycine spacers. This peptide also contained Gly8 as opposed to Arg8 which is found in the native sequence. It has been shown that this mutation has minimal affect on the overall binding affinity. The cell was filled with a 0.2 mM solution of either rac- or meso-A2B (in 10 mM phosphate buffer, pH 8.5). All measurements were carried out at 26° C.

[4] = system: Ac-KMe3-G-NH2; assay: Amplification in biased A2B dynamic combinatorial library (LC-MS); conditions: biased library A:B 2:1, 7.5 mM total; Ac-KMe3-G-NH2 template
Method: Using a biased library in which building blocks A and B were mixed in a 2:1 ratio (7.5 mM total), the selectivity of the receptors for different methylation states of lysine was investigated, using Ac—KMen-G-NH2 as the guests (n=0-3). A diverse library was generated in the absence of a template, with A2 and A2B3 as the dominant species and rac-A2B and meso-A2B constituting only 2.4% and 1.1% of the total library composition respectively.
Dynamic Combinatorial Chemistry. The relevant building blocks were individually dissolved in water, adding sufficient 1.0 M aqueous NaOH to fully deprotonate the thiols and carboxylic acids on the building blocks, using sonication when necessary. The pH of each solution was then adjusted to 8.5 using 1.0 M aqueous HCl and 1.0 M aqueous NaOH. […] The vials were capped and analyzed at various time points.
Analytical LC-MS. […] Mass spectra (ESI+) were acquired in ultrascan mode by using a drying temperature of 350° C., a nebulizer pressure of 45 psi, a drying gas flow of 10 L/min, and a capillary voltage of 3000 V. The reactions were monitored weekly (3 μL injections) until equilibrium was reached after about 3 weeks. […] The peak areas were integrated at 254 nm and the amplification factors were calculated (A.F.=% area of A2B in templated DCL/% area of A2B in untemplated DCL).

[5] = biological target: T4, H3 K9 (unmethylated, FAM-QTAR-K-STG-NH2) (Homo sapiens, UniProt P68431); assay: Fluorescence anisotropy binding of A2B receptors to FAM-labeled histone 3 peptide
T4 construct: peptide consisting of residues 5-11 of histone 3 (H3 K9Men); made in house; host or cells: solid-phase chemical peptide synthesis
Method: as §1, §2, §3, §4

[6] = biological target: T5, H3 K9Me (FAM-QTAR-KMe-STG-NH2) (Homo sapiens, UniProt P68431); assay: as above; conditions: 27° C., 10 mM phosphate buffer pH 8.5; errors in parentheses
T5 construct: peptide consisting of residues 5-11 of histone 3 (H3 K9Men); made in house; host or cells: solid-phase chemical peptide synthesis
Method: as §1, §2, §3, §4

[7] = biological target: T6, H3 K9Me3 R8G (Homo sapiens, UniProt P68431, R9G); assay: Fluorescence anisotropy binding to mutant H3 tail with Gly in place of Arg8; conditions: 27° C., 10 mM phosphate buffer pH 8.5; errors in parentheses
T6 construct: peptide consisting of residues 5-11 of histone 3 (H3 K9Men); made in house; host or cells: solid-phase chemical peptide synthesis
Method: FIG. 11. Fluorescence anisotropy of rac-A2B with H3 KMe3 where Arg8 has been mutated to Gly8 (10 mM sodium phosphate buffer pH 8.5).
as §3, §4

[8] = biological target: T7, H3 tail, Lys9 mutated to Gly (Homo sapiens, UniProt P68431, K10G); assay: Binding to H3 tail with Lys9 mutated to Gly
T7 construct: A mutant H3 tail with Gly in place of Arg8; made in house; host or cells: solid-phase chemical peptide synthesis

[9] = 26° C., 10 mM phosphate buffer pH 8.5, read-out: Kd by ITC, binding to KMe3

Kd [3, 9] | Kd ([3]; titration of WGGG-GKMe3 into receptor, read-out: Kd by ITC, binding to KMe3 (unit inferred)) | Kd [7] | Binding to H3 tail with Lys9 mutated to Gly (in words) [8] | Structure (SMILES) | Kd [1] | Kd [2] | Affinity for H3 K9Me3 peptide (in words) [2] | Amplification in templated DCL, KMe3 guest [4] | Kd ([5]; 27° C., 10 mM phosphate buffer pH 8.5) | Binding to the unmethylated histone tail (in words) ([5]; fluorescence anisotropy) | Kd [6]
12.8 µM and 13 µM | 12.8 µM | – | – | O=C(O)C1=C(C(=O)O)[C@@H]2c3ccc4cc3[C@H]1c1ccc(cc12)SSc1ccc2c(c1)[C@H]1C(C(=O)O)=C(C(=O)O)[C@@H]2c2cc(ccc21)SSc1cc(cc(C(=O)O)c1)SS4 [meso-A2B] | 73 µM | 28 µM | low micromolar affinity | approximately 10 fold | – | – | –
20 µM | – | 34 µM | total loss of binding | O=C(O)C1=C(C(=O)O)C2c3ccc4cc3C1c1ccc(cc12)SSc1ccc2c(c1)C1C(C(=O)O)=C(C(=O)O)C2c2cc(ccc21)SSc1cc(cc(C(=O)O)c1)SS4 (racemic) [rac-A2B] | 58 µM | 25 µM | low micromolar affinity | approximately 10 fold | > 1200 µM | no appreciable binding | 166 µM
